Several values for one entry are separate records, joined by “and”; a condition that tells them apart may be missing. Equal entries are not always repeated. Where two headings read alike, the source gives them in different places. Marks after values point to notes of the source that are not given here.
How the values were obtained:
[1] = target: T1, N-acetylgalactosamine-6-sulfatase (GALNS) (Homo sapiens, UniProt P34059); assay: GALNS inhibition in leukocyte homogenate from healthy donors (4-methylumbelliferyl-β-galactoside-6-sulfate substrate, fluorescence); type: biochemical; details: for inhibition at 1000 µM: pH 4.3, 1 mM inhibitor
T1 construct: Isolated leukocytes were disrupted by sonication; from tissue; host or cells: human leukocytes from healthy donors (sonicated homogenate)
T1 sequence (P34059 27-522): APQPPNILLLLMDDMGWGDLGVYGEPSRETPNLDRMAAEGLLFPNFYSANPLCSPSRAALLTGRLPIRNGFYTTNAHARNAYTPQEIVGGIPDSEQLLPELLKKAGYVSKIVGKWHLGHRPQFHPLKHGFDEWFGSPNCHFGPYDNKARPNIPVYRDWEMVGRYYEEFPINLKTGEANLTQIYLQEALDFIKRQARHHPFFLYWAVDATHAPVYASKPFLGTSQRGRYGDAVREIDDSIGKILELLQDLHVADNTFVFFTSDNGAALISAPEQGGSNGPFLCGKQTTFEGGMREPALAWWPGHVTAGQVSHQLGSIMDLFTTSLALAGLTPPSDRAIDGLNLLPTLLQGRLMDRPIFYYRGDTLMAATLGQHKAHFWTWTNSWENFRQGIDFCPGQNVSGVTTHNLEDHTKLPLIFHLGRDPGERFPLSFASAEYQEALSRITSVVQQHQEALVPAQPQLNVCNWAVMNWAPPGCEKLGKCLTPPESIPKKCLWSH
Experimental: A preliminary biological screening of the newly synthesized multivalent compounds at 1 mM inhibitor concentration was performed against GALNS in leukocytes isolated from healthy donors. Enzymatic assays were performed in triplicate by incubating leukocyte homogenate, compound, and substrate (4-methylumbelliferyl-β-galactoside-6-sulfate.Na) in Na-acetate/acetic acid buffer (pH 4.3) at 37 °C for 17 h, followed by the addition of β-galactosidase from Aspergillus oryzae and further incubation to release 4-methylumbelliferone. The fluorescence was measured, and the inhibition percentages were calculated relative to the control. The results are summarized in Table 1, Table 2, Table 3 and Table 4, along with new inhibition data toward GALNS of multivalent inhibitors whose synthesis was reported previously by our group (23, 26, 30, 51, 52–54). For compounds showing poor to negligible inhibitory activity, only the GALNS inhibition percentage at 1 mM was reported.
Enzymatic assays towards human GALNS in leukocytes isolated from healthy donors.
All experiments on biological materials were performed in accordance with the ethical standards of the institutional research committee and with the 1964 Helsinki Declaration and its later amendments. In keeping with ethical guidelines, all blood and cell samples were obtained for storage and analysed only after written informed consent of the patients (and/or their family members) was obtained, using a form approved by the local Ethics Committee (Assigned code: Lysolate “Late -onset Lysosomal Storage Disorders (LSDs) in the differential diagnosis of neurodegenerative diseases: development of new diagnostic procedures and focus on potential pharmacological chaperones (PCs).” Project ID code: 16774_bio, 5 May 2020, Comitato Etico Regionale per la Sperimentazione Clinica della Regione Toscana, Area Vasta Centro, Florence, Italy). Control and patient samples were anonymized and used only for research purposes.
A preliminary biological screening of compounds at 1 mM was performed towards GALNS in leukocytes isolated from healthy donors (controls). Isolated leukocytes were disrupted by sonication, and a micro BCA protein assay kit (Sigma–Aldrich) was used to determine the total protein amount for the enzymatic assay, according to the manufacturer instructions. Enzyme activity was measured by setting the reaction in 0.2 mL tubes and performing the experiments in triplicates as follows. Compound solution (3 µL), 4.29 μg/μL leukocyte homogenate 1:5 (7 μL) and 20 µL of 4-methylumbelliferyl-β-galactoside-6-sulfate.Na substrate solution (6.66mM) in Na-Acetate/acetic acid buffer (0.1 M/0.1 M, pH 4.3) containing 0.1 M NaCl, 0.02% (w/v) NaN3 and 5 mM Pb-acetate were incubated for 17 h at 37 °C. After step one, the tubes were placed on an ice cooler and the reaction was stopped by addition of 5 µL of Na-phosphate buffer (0.9 M, pH 4.3) containing 0.02 % (w/v) of NaN3 and by efficient mixing with vortex. Then, 10 µL of β-galactosidase from Aspergillus oryzae (β-Gal-A-10U) were added to each sample and samples were incubated for 2 h at 37°C. At the end of this period the tubes were placed on an ice cooler and the samples were transferred in a cooled flat –bottomed 96 well plate and the reaction was immediately stopped with 2 00 µL of NaHCO3/Na2CO3 buffer (0.5 M/0.5 M pH 10.7) containing 0.025% (w/v) of Triton X -100. Fluorescence was measured in a SpectraMax M2 microplate reader (Molecular-Devices) using a 365 nm excitation wavelength and a 435 nm emission wavelength. Percentage of GALNS inhibition was given with respect to the control (without compound).
Experiments were performed in triplicate, and the mean ± S. D. was calculated.
Figure S52. GALNS activity in the absence Figure S53. GALNS activity in the absence (Ctrl) and presence of scaffold 12 at a 1 mM (Ctrl) and presence of the new multivalent […]
The corresponding calculated inhibition of the main text) at a 1 mM concentration in […]

[2] = 1H-NMR stability study of the acetal in D2O at pH* 4.3, 37 °C; type: physicochemical; details: after 19 h
Experimental: The presence of pH-sensitive acetal groups in β-D-glucose-derived dendrimers led us to question whether these compounds would remain stable under the biological conditions of the screening assay. To assess their stability under the experimental conditions, we synthesized 2-(nonyloxy)tetrahydro-2H-pyran acetal following the literature procedure as a control and conducted an NMR stability study. The NMR sample was prepared in D2O at pH* 4.3, where pH* refers to the pH measured in a D2O solution using an H2O-calibrated pH meter. […] The hydrolysis of the 2-(nonyloxy)tetrahydro-2H-pyran acetal yielded nonan-1-ol and 5-hydroxypentanal. The compound stability at pH* 4.3, assessed by ¹H-NMR experiments, is reported in the Supporting Information.

rhGALNS = tested on: rhGALNS; parameters: method as in PMID 31905715; details: preliminary studies; cited from earlier work
GALNS = details: cited from earlier work
[3] = target: T1, N-acetylgalactosamine-6-sulfatase (GALNS); parameters: method as in doi:10.1039/C6RA15806D; details: cited from earlier work
[4] = human leukocyte extracts, pH 4.3, 37 °C, 17 h
[5] = calculated considering 35 as the monovalent reference compound

Which inhibition at 1000 µM [1, 4] does the source give for `OC[C@@H]1[C@@H](O)[C@H](O)CN1CCCCCCn1cc(COCC(COCc2cn(CCCCCCN3C[C@@H](O)[C@H](O)[C@H]3CO)nn2)(COCc2cn(CCCCCCN3C[C@@H](O)[C@H](O)[C@H]3CO)nn2)COCc2cn(CCCCCCN3C[C@@H](O)[C@H](O)[C@H]3CO)nn2)nn1` [Compound 30] here?
The inhibition at 1000 µM was 35%.

For `OCC1C(O)C(O)CN1CCCCCCn1cc(COCC(COCc2cn(CCCCCCN3CC(O)C(O)C3CO)nn2)(COCc2cn(CCCCCCN3CC(O)C(O)C3CO)nn2)COCc2cn(CCCCCCN3CC(O)C(O)C3CO)nn2)nn1` (centres unmarked) [Compound 31], which inhibition at 1000 µM [1, 4] is on record?
Its inhibition at 1000 µM is 73%.

With `NC(COCc1cn(CCCCCCN2C[C@@H](O)[C@H](O)[C@H]2CO)nn1)(COCc1cn(CCCCCCN2C[C@@H](O)[C@H](O)[C@H]2CO)nn1)COCc1cn(CCCCCCN2C[C@@H](O)[C@H](O)[C@H]2CO)nn1` [Compound 26] as the compound, how does the inhibition at 1000 µM [1, 4] read?
The inhibition at 1000 µM was under 75%.

With `OCC1C(O)C(O)C2CC(n3cc(COCC(COCc4cn(C5CC6C(O)C(O)C(CO)N6C5)nn4)(COCc4cn(C5CC6C(O)C(O)C(CO)N6C5)nn4)COCc4cn(C5CC6C(O)C(O)C(CO)N6C5)nn4)nn3)CN12` (centres unmarked) [Compound 54] as the compound, how does the inhibition at 1000 µM [1, 4] read?
The inhibition at 1000 µM was 9%.

For `O=C(NC(COCc1cn(CCCCCCN2CCCC2)nn1)(COCc1cn(CCCCCCN2CCCC2)nn1)COCc1cn(CCCCCCN2CCCC2)nn1)c1cc(C(=O)NC(COCc2cn(CCCCCCN3CCCC3)nn2)(COCc2cn(CCCCCCN3CCCC3)nn2)COCc2cn(CCCCCCN3CCCC3)nn2)cc(C(=O)NC(COCc2cn(CCCCCCN3CCCC3)nn2)(COCc2cn(CCCCCCN3CCCC3)nn2)COCc2cn(CCCCCCN3CCCC3)nn2)c1` [Compound 38], which IC50 ([1]; human leukocyte extracts) is on record?
Its IC50 is 0.07 ± 0.015 mM.

For `CCCCCCCCCOC1CCCCO1` (centres unmarked) [2-(nonyloxy)tetrahydro-2H-pyran acetal, 2-(nonyloxy)tetrahydro-2H-pyran], which “stability at pH* 4.3 by 1H-NMR” value [2] is on record?
Its value is “remained stable”.

Which “effect on activity and thermostability of rhGALNS” value (from here on “effect … of rhGALNS”) (rhGALNS) does the source give for `CC(C)C[C@H]1C(=O)N2CCC[C@H]2[C@]2(O)O[C@](NC(=O)[C@@H]3C=C4c5cccc6[nH]c(Br)c(c56)C[C@H]4N(C)C3)(C(C)C)C(=O)N12` [bromocriptine] here?
Its value is “increase the activity and thermostability of rhGALNS”.

Which results are given for `CC(=O)OCC1OC(OCCCCCCn2cc(CO)nn2)C(OC(C)=O)C(OC(C)=O)C1OC(C)=O` (centres unmarked) [Compound 48]?
IC50 ([1]; human leukocyte extracts, cell prints mM under a µM head): > 1 mM; inhibition at 1000 µM [1, 4]: 16%

Which “% Inhibition (1 mM)” value ([1]; 1 mM inhibitor, human leukocyte extracts, pH 4.3, 37 °C, 17 h) does the source give for `CCCCCCCCN1C[C@@H](O)C(O)[C@H](O)C1` [Compound 55] here?
Its value is 33%.

Which “effect … of rhGALNS” value (rhGALNS) does the source give for `O=C1[C@H](CC[C@H](O)c2ccc(F)cc2)[C@@H](c2ccc(O)cc2)N1c1ccc(F)cc1` [ezetimibe] here?
The value was “increase the activity and thermostability of rhGALNS”.

With `O=C(Nc1cccc2c(=O)cc(-c3nnn[nH]3)oc12)c1ccc(OCCCCc2ccccc2)cc1` [pranlukast] as the compound, how does the “effect … of rhGALNS” value (rhGALNS) read?
Its value is “increase the activity and thermostability of rhGALNS”.

Which IC50 (GALNS) does the source give for `OC[C@@H](C[C@H]1N[C@H](CO)[C@@H](O)[C@@H]1O)OC[C@H](O)C[C@H]1N[C@H](CO)[C@@H](O)[C@@H]1O` [Compound 3] here?
The IC50 was 0.3 µM.

For `O=C(CCCCC(=O)NC(COCc1cn(CCCCCCN2CC(O)C(O)C2CO)nn1)(COCc1cn(CCCCCCN2CC(O)C(O)C2CO)nn1)COCc1cn(CCCCCCN2CC(O)C(O)C2CO)nn1)NC(COCc1cn(CCCCCCN2CC(O)C(O)C2CO)nn1)(COCc1cn(CCCCCCN2CC(O)C(O)C2CO)nn1)COCc1cn(CCCCCCN2CC(O)C(O)C2CO)nn1` (centres unmarked) [Compound 33], which “rp/n (multivalent effect)” value [1, 5] is on record?
The value was 2.4.

For `O=C(NC(COCc1cn(CCCCCCN2C[C@H](O)[C@H](O)[C@H]2CO)nn1)(COCc1cn(CCCCCCN2C[C@H](O)[C@H](O)[C@H]2CO)nn1)COCc1cn(CCCCCCN2C[C@H](O)[C@H](O)[C@H]2CO)nn1)c1cc(C(=O)NC(COCc2cn(CCCCCCN3C[C@H](O)[C@H](O)[C@H]3CO)nn2)(COCc2cn(CCCCCCN3C[C@H](O)[C@H](O)[C@H]3CO)nn2)COCc2cn(CCCCCCN3C[C@H](O)[C@H](O)[C@H]3CO)nn2)cc(C(=O)NC(COCc2cn(CCCCCCN3C[C@H](O)[C@H](O)[C@H]3CO)nn2)(COCc2cn(CCCCCCN3C[C@H](O)[C@H](O)[C@H]3CO)nn2)COCc2cn(CCCCCCN3C[C@H](O)[C@H](O)[C@H]3CO)nn2)c1` [Compound 2], which “rp (relative potency)” value [1, 5] is on record?
The value was 59.

What about the “rp/n (multivalent effect)” value [1, 5] of the same compound?
Its value is 6.5 ^[d].

And the “rp (relative potency)” value ([1]; calculated with respect to the scaffold 38)?
The value was 0.8.

And the “% Inhibition (1 mM)” value ([3]; 1 mM inhibitor, human leukocyte extracts)?
Its value is 85 ^[a] %.

What about the IC50 ([3]; human leukocyte extracts) of the same compound?
The IC50 was 85 ± 8 µM.

And the rp/n ([3]; positive MVE as previously reported)?
Its rp/n is 6.5 and 6.5–9.2.

With `O=C(NC(COCc1cn(CCN2C[C@@H](O)[C@H](O)[C@H]2CO)nn1)(COCc1cn(CCN2C[C@@H](O)[C@H](O)[C@H]2CO)nn1)COCc1cn(CCN2C[C@@H](O)[C@H](O)[C@H]2CO)nn1)c1ccc([N+](=O)[O-])cc1` [Compound 51] as the compound, how does the inhibition at 1000 µM [1, 4] read?
The inhibition at 1000 µM was 49%.

With `C#CCOCC(COCC#C)(COCC#C)NC(=O)c1cc(C(=O)NC(COCC#C)(COCC#C)COCC#C)cc(C(=O)NC(COCC#C)(COCC#C)COCC#C)c1` [Compound 12] as the compound, how does the inhibition at 1000 µM [1, 4] read?
The inhibition at 1000 µM was 25%.

Which inhibition at 1000 µM [1, 4] does the source give for `OC[C@@H]1[C@@H](O)[C@H](O)CN1CCCCCCn1cc(COCC(COCc2cn(CCCCCCN3C[C@@H](O)[C@H](O)[C@H]3CO)nn2)OCc2cn(CCCCCCN3C[C@@H](O)[C@H](O)[C@H]3CO)nn2)nn1` [Compound 28] here?
Its inhibition at 1000 µM is under 75%.

Reference: PMC12113998, “Exploring Multivalent Architectures for Binding and Stabilization of N-Acetylgalactosamine 6-Sulfatase” (Molecules, 2025)
